15 compounds from patent US7776892B2, “Fungicidal composition comprising a pyridylethylbenzamide derivative and a compound capable of inhibiting the spores germination or mycelium growth by acting on different metabolic routes” (Bayer Cropscience S.A., priority 2004, dated 2010) can be followed below.

Structures can show the parent of a compound that is named as a salt.

Common to all, as to format: in vivo
In experiment [1] the test system is Botrytis cinerea. As to the kind of experiment: Example 7: efficacy against Botrytis cinerea on gherkin plants, Compound 1 and benalaxyl. The following applies: grading 5 to 7 days after contamination. As to the method:
(§1) The active ingredients tested are prepared by potter homogenisation in a mixture of acetone/tween/water. This suspension is then diluted with water to obtain the desired active material concentration.
(§2) Gherkin plants (Petit vert de Paris variety) in starter cups, sown on a 50/50 peat soil-pozzolana substrate and grown at 18-20° C., are treated at the cotyledon Z11 stage by spraying with the aqueous suspension described above. Plants, used as controls, are treated with an aqueous solution not containing the active material.
(§3) After 24 hours, the plants are contaminated by depositing drops of an aqueous suspension of Botrytis cinerea spores (150,000 spores per ml) on upper surface of the leaves. The spores are collected from a 15-day-old culture and are suspended in a nutrient solution composed of: • 20 g/L of gelatine • 50 g/L of cane sugar • 2 g/L of NH4NO3 • 1 g/L of KH2PO4
(§4) The contaminated gherkin plants are settled for 5/7 days in a climatic room at 15-11° C. (day/night) and at 80% relative humidity. Grading (% of efficacy) is carried out 5 to 7 days after the contamination, in comparison with the control plants.

The next experiment concerns Puccinia recondita. As to the kind of experiment: Example 3: efficacy against Puccinia recondita on wheat plants, Compound 1 and captan. As to conditions: 240 h, grading 10 days after contamination. As to the method:
as §1
Wheat plants (Scipion variety) in starter cups, sown on 50/50 peat soil-pozzolana substrate and grown at 12° C., are treated at the 1-leaf stage (10 cm tall) by spraying with the aqueous suspension described above.
(§5) Plants, used as controls, are treated with an aqueous solution not containing the active material.
After 24 hours, the plants are contaminated by spraying the leaves with an aqueous suspension of Puccinia recondita spores (100,000 spores per ml). The spores are collected from a 10-day-old contaminated wheat and are suspended in water containing 2.5 ml/l of tween 80 10%. The contaminated wheat plants are incubated for 24 hours at 20° C. and at 100% relative humidity, and then for 10 days at 20° C. and at 70% relative humidity. Grading is carried out 10 days after the contamination, in comparison with the control plants.

In experiment [2] the test system is Erysiphe graminis f. sp. tritici. As to the kind of experiment: Example 14: efficacy against Erysiphe graminis f. sp. tritici on wheat plants, Compound 1 and chlorothalonil. As to conditions: Blumeria graminis, grading 7 to 14 days after contamination. As to the method:
The formulated compounds are diluted with water to obtain the desired active material concentration
Wheat plants (Audace variety) in starter cups, sown on 50/50 peat soil-pozzolana substrate and grown at 12° C., are treated at the 1-leaf stage (10 cm tall) by spraying with the aqueous suspension described above.
as §5
After 24 hours, the plants are contaminated by dusting them with Erysiphe graminis f. sp. tritici spores, the dusting being carried out using diseased plants.
Grading is carried out 7 to 14 days after the contamination, in comparison with the control plants.

In experiment [3] the test system is Botrytis cinerea. The experiment in a line: Example 8: efficacy against Botrytis cinerea on gherkin plants, Compound 1 and metalaxyl-M. As to conditions: grading 5 to 7 days after contamination. The procedure:
as §1, §2, §3, §4

For experiment [4], the system named is Botrytis cinerea. As to the kind of experiment: Example 1: efficacy against Botrytis cinerea on gherkin plants, Compound 1 and mancozeb. As to conditions: grading 5 to 7 days after contamination. The procedure:
(§6) Gherkin plants (Petit vert de Paris variety) in starter cups, sown on a 50/50 peat soil-pozzolana substrate and grown at 18-20° C., are treated at the cotyledon Z11 stage by spraying with the aqueous suspension described above.
as §3, §4

For experiment [5], the system named is Botrytis cinerea. As to the kind of experiment: Example 6: efficacy against Botrytis cinerea on gherkin plants, Compound 1 and fludioxonil. As to the method: as §1, §2, §3, §4
Experiment [6] concerns Botrytis cinerea. As to the kind of experiment: Example 5: efficacy against Botrytis cinerea on gherkin plants, Compound 1 and iprodione. As to conditions: grading 5 to 7 days after contamination. The procedure:
(§7) The formulated compounds are diluted with water to obtain the desired active material concentration. Gherkin plants (Petit vert de Paris variety) in starter cups, sown on a 50/50 peat soil-pozzolana substrate and grown at 18-20° C., are treated at the cotyledon Z11 stage by spraying with the aqueous suspension described above. Plants, used as controls, are treated with an aqueous solution not containing the active material.
as §3, §4

Experiment [7] deals with Botrytis cinerea. The experiment in a line: Example 9: efficacy against Botrytis cinerea on gherkin plants, Compound 1 and propamocarb-HCl. The following applies: grading 5 to 7 days after contamination. The procedure:
as §6, §3, §4

Another experiment concerns Peronospora parasitica. The experiment in a line: Example 12: efficacy against Peronospora parasitica on cabbage plants, Compound 1 and Compound A. The following applies: Hyaloperonospora parasitica, 120 h, grading 5 days after contamination. The procedure:
The active ingredient tested is prepared by potter homogenisation in a concentrated suspension type formulation at 100 g/l. This suspension is then diluted with water to obtain the desired active material concentration.
Cabbage plants (Eminence variety) in starter cups, sown on a 50/50 peat soil-pozzolana substrate and grown at 18-20° C., are treated at the cotyledon stage by spraying with the aqueous suspension described above.
as §5
After 24 hours, the plants are contaminated by spraying them with an aqueous suspension of Peronospora parasitica spores (50,000 spores per ml). The spores are collected from infected plant.
The contaminated cabbage plants are incubated for 5 days at 20° C., under a humid atmosphere.
Grading is carried out 5 days after the contamination, in comparison with the control plants.

Experiment [8] has as its system Sphaerotheca fuliginea. The experiment in a line: Example 13: efficacy against Sphaerotheca fuliginea on gherkin plants, Compound 1 and iprovalicarb. As to conditions: grading 21 days after contamination. The procedure: Gherkin plants (Vert petit de Paris variety) in starter cups, sown on a 50/50 peat soil-pozzolana substrate and grown at 20° C./23° C., are treated at the 2-leaves stage by spraying with the aqueous suspension described above.
After 24 hours, the plants are contaminated by spraying them with an aqueous suspension of Sphaerotheca fuliginea spores (100 000 spores per ml). The spores are collected from a contaminated plants The contaminated gerkhin plants are incubated at about 20° C./25° C. and at 60/70% relative humidity.
(§8) Grading (% of efficacy) is carried out 21 days after the contamination, in comparison with the control plants.

The test system of experiment [9] is Sphaerotheca fuliginea. As to the kind of experiment: Example 11: efficacy against Sphaerotheca fuliginea on gherkin plants, Compound 1 and tolylfluanid. The following applies: Podosphaera fuliginea, 504 h, grading 21 days after contamination. As to the method: (§9) The formulated compounds are diluted with water to obtain the desired active material concentration.
Gherkin plants (Vert petit de Paris variety) in starter cups, sown on a 50/50 peat soil-pozzolana substrate and grown at 20° C./23° C., are treated at the 2-leaves stage by spraying with the aqueous suspension described above. Plants, used as controls, are treated with an aqueous solution not containing the active material.
After 24 hours, the plants are contaminated by spraying them with an aqueous suspension of Sphaerotheca fuliginea spores (100,000 spores per ml). The spores are collected from a contaminated plants The contaminated gerkhin plants are incubated at about 20° C./25° C. and at 60/70% relative humidity.
as §8

Experiment [10] deals with Botrytis cinerea. As to the kind of experiment: Example 10: efficacy against Botrytis cinerea on gherkin plants, Compound 1 and fosetyl-Al. As to conditions: grading 5 to 7 days after contamination. The procedure: as §9, §2, §3, §4
The test system of experiment [11] is Botrytis cinerea. As to the kind of experiment: Example 2: efficacy against Botrytis cinerea on gherkin plants, Compound 1 and propineb. The following applies: grading 5 to 7 days after contamination. The procedure: as §6, §3, §4
In experiment [12] the test system is Botrytis cinerea. The experiment in a line: Example 4: efficacy against Botrytis cinerea on gherkin plants, Compound 1 and folpet. As to conditions: grading 5 to 7 days after contamination. As to the method:
as §7, §3, §4

For the compound `COC(=O)C(C)N(C(=O)Cc1ccccc1)c1c(C)cccc1C` (stereo not drawn) [Benalaxyl, benalaxyl, reference compound], in the experiment on Botrytis cinerea [1] (111 ppm), the Emax at 111 ppm was found to be 7%.
As to `O=C1C2CC=CCC2C(=O)N1SC(Cl)(Cl)Cl` (stereo not drawn) [Captan, captan], in the experiment with Puccinia recondita, the Emax at 125 ppm amounted to 0% and the Emax at 250 ppm came to 0%. The Emax at 500 ppm with Puccinia recondita (500 ppm) was 10%.
Turning to `N#Cc1c(Cl)c(Cl)c(Cl)c(C#N)c1Cl` [Chlorothalonil, chlorothalonil, reference compound], the Emax at 250 g/ha in experiment [2] was 0%.
`O=C(NCCc1ncc(C(F)(F)F)cc1Cl)c1ccccc1C(F)(F)F` [Compound 1, N-{2-[3-chloro-5-(trifluoromethyl)-2-pyridinyl]ethyl}-2-trifluoromethylbenzamide]: the Emax at 37 ppm is 45% in the experiment with Botrytis cinerea [3] (Botrytis cinerea, 37 ppm); 50% in the experiment on Botrytis cinerea [4] (Botrytis cinerea, 37 ppm); 38% with Botrytis cinerea [5] (37 ppm, gherkin plants, grading 5 to 7 days after contamination); 0% in the experiment with Botrytis cinerea [6]; 65% in the experiment with Botrytis cinerea [11] (Botrytis cinerea, 37 ppm); 50% with Botrytis cinerea [12] (37 ppm). For the same compound, in the experiment on Botrytis cinerea [1] (37 ppm), the Emax at 37 ppm is 78%. Further, the Emax at 111 ppm with Botrytis cinerea [4] (Botrytis cinerea, 111 ppm) came to 70%; in the experiment with Botrytis cinerea [7] (111 ppm), 70%; in the experiment on Botrytis cinerea [10] (Botrytis cinerea, 111 ppm) it was 70%; with Botrytis cinerea [11] (Botrytis cinerea, 111 ppm) it was 87%; with Botrytis cinerea [12] (111 ppm), 70%. For the same compound, the Emax at 12.3 ppm in the experiment on Botrytis cinerea [5] (12.3 ppm, gherkin plants, grading 5 to 7 days after contamination) worked out at 0%; in the experiment on Peronospora parasitica, 0%; in the experiment on Sphaerotheca fuliginea [8] (Podosphaera fuliginea, 504 h, 12.3 ppm), 65%. In experiment [2], the Emax at 250 g/ha was 30%. The compound also yielded an Emax at 500 g/ha in experiment [2] (500 g/ha) of 60%. The same compound showed an Emax at 4.1 ppm in the experiment with Sphaerotheca fuliginea [9] (4.1 ppm) of 69%. This compound also registered an Emax at 125 ppm with Puccinia recondita of 0%. Moreover, the Emax at 250 ppm in the experiment with Puccinia recondita was determined as 10%.
Consider `O=C(NCc1ncc(C(F)(F)F)cc1Cl)c1c(Cl)cccc1Cl` [Compound A, 2,6-dichloro-N-{[3-chloro-5-(tri-fluoromethyl)-2-pyridinyl]methyl}benzamide, reference compound], for which the Emax at 12.3 ppm with Peronospora parasitica came to 40%.
`N#Cc1c[nH]cc1-c1cccc2c1OC(F)(F)O2` [Fludioxonil, fludioxonil, reference compound]: in the experiment with Botrytis cinerea [5] (read-out: % Efficacy), the Emax at 4.1 ppm was 0%.
`O=C1c2ccccc2C(=O)N1SC(Cl)(Cl)Cl` [Folpet, folpet, reference compound] yielded an Emax at 333 ppm in the experiment on Botrytis cinerea [12] (333 ppm) of 0%. In the experiment with Botrytis cinerea [12] (1000 ppm), this compound displayed an Emax at 1000 ppm of 0%.
For `CCO[PH](=O)O` [Fosetyl-Al, fosetyl-Al, reference compound], the “% Efficacy” value in the experiment with Botrytis cinerea [10] (1000 ppm) is given as 0%.
As to `CC(C)NC(=O)N1CC(=O)N(c2cc(Cl)cc(Cl)c2)C1=O` [Iprodione, iprodione], the Emax at 37 ppm with Botrytis cinerea [6] was 0%. Also, in the experiment on Botrytis cinerea [6] (111 ppm), the Emax at 111 ppm amounted to 90%.
For `Cc1ccc(C(C)NC(=O)[C@@H](NC(=O)OC(C)C)C(C)C)cc1` (stereo partly drawn) [Iprovalicarb, iprovalicarb, reference compound], the “% Efficacy” value in the experiment with Sphaerotheca fuliginea [8] (111 ppm) was determined as 50%.
`COCC(=O)N(c1c(C)cccc1C)[C@H](C)C(=O)OC` [Metalaxyl-M, metalaxyl-M, reference compound]: the “% Efficacy” value with Botrytis cinerea [3] (111 ppm) is listed as 0%.
In the experiment with Botrytis cinerea [7] (1000 ppm), `CCCOC(=O)NCCCN(C)C` [Popamocarb-HCl, propamocarb-HCl, reference compound] yielded an Emax at 1000 ppm of 0%.
In the experiment on Sphaerotheca fuliginea [9] (12.3 ppm), `Cc1ccc(N(SC(F)(Cl)Cl)S(=O)(=O)N(C)C)cc1` [Tolylfluanid, tolylfluanid] had an Emax at 12.3 ppm of 0%. In the experiment on Sphaerotheca fuliginea [9] (37 ppm), this compound yielded an Emax at 37 ppm of 50%.
Turning to mancozeb [reference compound], the “% Efficacy” value in the experiment on Botrytis cinerea [4] (1000 ppm) came to 0%.
propineb [reference compound]: the “% Efficacy” value in the experiment on Botrytis cinerea [11] (3000 ppm) was 0%.
